From patent publication US20050008596A1, “Composition containing an oxidation-sensitive active principle and a polyisobutylene polymer” (L'OREAL, priority 2003, published 2005)

Assay: Accelerated storage test: decomposition of ascorbic acid in the composition after two months at 45° C., HPLC
Format: physicochemical
Settings: formulated in the presence of Lubrizol 5603, compared with conventional emulsifier; even in the presence of oxygen
Experimental: The aim of this test is to study the decomposition of an oxidation-sensitive hydrophilic active principle in a composition, after storage for two months at 45° C.
The degree of decomposition measured is given by the ratio: (C0-C2 months)/C0 with C0 being the concentration of ascorbic acid at t=0 and C2 months being the concentration of ascorbic acid at t=2 months.
The concentration of ascorbic acid is determined by the HPLC technique (Merck LaChrom system). The analytical conditions are as follows: • Column: Lichrosphere 100 RP18 (250 mm) • Eluant: 0.1M phosphate buffer, pH 2.1 • Flow rate: 1 ml/min • Detection at 257 nm. • Dilution of the sample such that the concentration of ascorbic acid is between 0.05 and 1 mg/ml.
The test was carried out with the composition Example 1, and with the composition of Comparative Example 1 which contains, instead of the polymer according to the invention, a conventionally used emulsifier, cyclopentasiloxane and PEG/PPG-18/18 dimethicone.

For `O=C1O[C@H]([C@@H](O)CO)C(O)=C1O` [ascorbic acid], the “Increase of stability of the ascorbic acid” value was 50%.
